What was measured:
Assay in all cases: NCI SRB growth inhibition (single dose 10 µM / five-dose)
Assay type in all cases: cell-based, human
MCF7 = conditions: Homo sapiens; MCF7 (Breast cancer), 10 µM; read-out: GI%
Method in brief: (§1)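 Percent growth relative to untreated control and time-zero cell mass, determined by SRB. Five drug levels (10-fold or half-log steps) plus control; time-zero plates fixed 24 h after seeding.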

PC-3 = conditions: Homo sapiens; PC-3 (Prostate cancer), 10 µM; read-out: GI%
Method in brief: as §1

HT29 = conditions: Homo sapiens, HT-29; HT29 (Colon cancer), 10 µM; read-out: GI%
Method in brief: as §1

OVCAR-8 = conditions: Homo sapiens; OVCAR-8 (Ovarian cancer), 10 µM; read-out: GI%
Method in brief: as §1

A549/ATCC = conditions: Homo sapiens; A549/ATCC (Non-small cell lung cancer), 10 µM; read-out: GI%
Method in brief: as §1

SF-268 = conditions: Homo sapiens; SF-268 (CNS cancer), 10 µM; read-out: GI%
Method in brief: as §1

MOLT-4 = conditions: Homo sapiens; MOLT-4 (Leukemia), 10 µM; read-out: GI%
Method in brief: as §1

OVCAR-5 = conditions: Homo sapiens; OVCAR-5 (Ovarian cancer), 10 µM; read-out: GI%
Method in brief: as §1

HOP-62 = conditions: Homo sapiens; HOP-62 (Non-small cell lung cancer), 10 µM; read-out: GI%
Method in brief: as §1

NCI-H322M = conditions: Homo sapiens; NCI-H322M (Non-small cell lung cancer), 10 µM; read-out: GI%
Method in brief: as §1

SK-MEL-2 = conditions: Homo sapiens; SK-MEL-2 (Melanoma), 10 µM; read-out: GI%
Method in brief: as §1

MDA-MB-231/ATCC = conditions: Homo sapiens; MDA-MB-231/ATCC (Breast cancer), 10 µM; read-out: GI%
Method in brief: as §1

HL-60(TB) = conditions: Homo sapiens; HL-60(TB) (Leukemia), 10 µM; read-out: GI%
Method in brief: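 SRB protein stain of fixed cells; compounds tested at one dose (10 µM) or five serial dilutions (10-fold or ½ log), diluted from DMSO stock. Cells plated 24 h before dosing, with a time-zero plate fixed in TCA. Percent growth derived from Tz, control and test absorbances; TGI taken where Ti = Tz.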

SR = conditions: Homo sapiens; SR (Leukemia), 10 µM; read-out: GI%
Method in brief: as §1

SNB-19 = conditions: Homo sapiens; SNB-19 (CNS cancer), 10 µM; read-out: GI%
Method in brief: as §1

LOX IMVI = conditions: Homo sapiens; LOX IMVI (Melanoma), 10 µM; read-out: GI%
Method in brief: as §1

CCRF-CEM = conditions: Homo sapiens; CCRF-CEM (Leukemia), 10 µM; read-out: GI%
Method in brief: as §1

HCT-15 = conditions: Homo sapiens; HCT-15 (Colon cancer), 10 µM; read-out: GI%
Method in brief: as §1

NCI-H23 = conditions: Homo sapiens; NCI-H23 (Non-small cell lung cancer), 10 µM; read-out: GI%
Method in brief: as §1

ACHN = conditions: Homo sapiens; ACHN (Renal cancer), 10 µM; read-out: GI%
Method in brief: as §1

A498 = conditions: Homo sapiens; A498 (Renal cancer), 10 µM; read-out: GI%
Method in brief: as §1

CAKI-1 = conditions: Homo sapiens; CAKI-1 (Renal cancer), 10 µM; read-out: GI%
Method in brief: as §1

HS 578 T = conditions: Homo sapiens; HS 578 T (Breast cancer), 10 µM; read-out: GI%
Method in brief: as §1

HCC-2998 = conditions: Homo sapiens; HCC-2998 (Colon cancer), 10 µM; read-out: GI%
Method in brief: as §1

UACC-257 = conditions: Homo sapiens; UACC-257 (Melanoma), 10 µM; read-out: GI%
Method in brief: as §1

BT-549 = conditions: Homo sapiens; BT-549 (Breast cancer), 10 µM; read-out: GI%
Method in brief: as §1

Row | SMILES | inhibition at 10 µM (MCF7) [%] | inhibition at 10 µM (PC-3) [%] | inhibition at 10 µM (HT29) [%] | inhibition at 10 µM (OVCAR-8) [%] | inhibition at 10 µM (A549/ATCC) [%] | inhibition at 10 µM (SF-268) [%] | inhibition at 10 µM (MOLT-4) [%] | inhibition at 10 µM (OVCAR-5) [%] | inhibition at 10 µM (HOP-62) [%] | inhibition at 10 µM (NCI-H322M) [%] | inhibition at 10 µM (SK-MEL-2) [%] | inhibition at 10 µM (MDA-MB-231/ATCC) [%] | inhibition at 10 µM (HL-60(TB)) [%] | inhibition at 10 µM (SR) [%] | inhibition at 10 µM (SNB-19) [%] | inhibition at 10 µM (LOX IMVI) [%] | inhibition at 10 µM (CCRF-CEM) [%] | inhibition at 10 µM (HCT-15) [%] | inhibition at 10 µM (NCI-H23) [%] | inhibition at 10 µM (ACHN) [%] | also measured
1 | O=C(NN=Cc1cccc(O)c1)c1ccc2[nH]c(-c3ccccc3)nc2c1 [8b, N'-(3-Hydroxybenzylidene)-2-phenyl-1H-benzo[d]imidazole-5-carbohydrazide] | 43.1 | 11.8 | 16.4 | 10.3 | < 5 | 16.8 | 31.5 | < 5 | 19.3 | < 5 | < 5 | 14.1 | 14.4 | 36.8 | < 5 | 7.43 | 54.4 | < 5 | < 5 | < 5 | inhibition at 10 µM (A498): < 5%; inhibition at 10 µM (CAKI-1): 9.41%; inhibition at 10 µM (HS 578 T): < 5%; inhibition at 10 µM (HCC-2998): < 5%; inhibition at 10 µM (UACC-257): < 5%; inhibition at 10 µM (BT-549): < 5%
2 | COc1ccc(OC)c(C=NNC(=O)c2ccc3[nH]c(-c4ccc(Cl)cc4)nc3c2)c1 [8t, 2-(4-Chlorophenyl)-N'-(2,5-dimethoxybenzylidene)-1H-benzo[d]imidazole-5-carbohydrazide] | 48.1 | 58.5 | 20.3 | 17.2 | 8.76 | 43 | 58.9 | < 5 | 18.4 | 28.9 | < 5 | 89.7 | 12.9 | 31.4 | 45.7 | 34.6 | 56.1 | 58.2 | 33.9 | 53.1 | inhibition at 10 µM (A498): 56.2%; inhibition at 10 µM (CAKI-1): 38.4%; inhibition at 10 µM (HS 578 T): 48.8%; inhibition at 10 µM (HCC-2998): 14.6%; inhibition at 10 µM (UACC-257): < 5%; inhibition at 10 µM (BT-549): 25.7%
3 | COc1ccc(-c2nc3cc(C(=O)NN=Cc4ccc(OC)c(O)c4)ccc3[nH]2)cc1 [8l, N'-(3-Hydroxy-4-methoxybenzylidene)-2-(4-methoxyphenyl)-1H-benzo[d]imidazole-5-carbohydrazide] | 77.8 | 51.2 | > 100 | 28.1 | 5.94 | 40.4 | 78.6 | < 5 | 55.5 | 24 | 25.8 | 26.4 | 52.2 | 72.2 | 16.1 | 37.9 | 89.4 | < 5 | 24 | < 5 | inhibition at 10 µM (A498): < 5%; inhibition at 10 µM (CAKI-1): < 5%; inhibition at 10 µM (HS 578 T): 46.2%; inhibition at 10 µM (HCC-2998): 15%; inhibition at 10 µM (UACC-257): 52.9%; inhibition at 10 µM (BT-549): 10.4%
4 | COc1ccc(-c2nc3cc(C(=O)NN=Cc4cccc(O)c4)ccc3[nH]2)cc1 [8i, N'-(3-Hydroxybenzylidene)-2-(4-methoxyphenyl)-1H-benzo[d]imidazole-5-carbohydrazide] | 88.2 | 34.4 | 74.5 | 38.1 | 11.2 | 37.4 | 79 | < 5 | 42 | 18.3 | 37.5 | 22.4 | 55.1 | 81.9 | 15.8 | 26.1 | 80.8 | 5.17 | 6.56 | < 5 | inhibition at 10 µM (A498): < 5%; inhibition at 10 µM (CAKI-1): 5.16%; inhibition at 10 µM (HS 578 T): 52.6%; inhibition at 10 µM (HCC-2998): 14.9%; inhibition at 10 µM (UACC-257): 47.4%; inhibition at 10 µM (BT-549): 32.7%

— article PMC10893631, “Receptor-based pharmacophore modeling, molecular docking, synthesis and biological evaluation of novel VEGFR-2, FGFR-1, and BRAF multi-kinase inhibitors” (BMC Chemistry, 2024)
